In patent US12319655B2, “RAF kinase inhibitors and methods of use thereof” (Deciphera Pharmaceuticals, LLC, priority 2021, dated 2025):
Like-named read-outs stand apart in the source and are kept apart here.

How the values were obtained:
A375 cells = test: A375 Cell Proliferation Assay (1); type: cell-based; details: Homo sapiens, A-375
In short: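 Resazurin fluorescence (excitation 540 nm, emission 600 nm, after a further 5-6 h) gave IC50s from triplicate compound dilution series.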

H2405 cells = test: H2405 Cell Proliferation Assay (1); type: cell-based; details: Homo sapiens, NCI-H2405
In short: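 Viability was read by resazurin reduction (ex 540 nm, em 600 nm; 5-6 h with 40 μL of 440 μM stock) after 67-72 h compound exposure at 37 °C.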

[1] = biological target: B-Raf kinase (SEQ. ID NO: 2) (Homo sapiens (Human), UniProt P15056); test: Biochemical Assay for B-Raf (1); details: Table J
In short: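 IC50 derived by four-parameter sigmoidal fit of percent inhibition, normalised to uninhibited and reference-inhibitor controls, using reaction rates over 4–5 h. Coupled spectrophotometric readout (NADH loss at 340 nm, 6 h, 30° C.); 1 mM ATP, 30.1 nM MEK, 0.13 nM B-Raf, pH 7.5 Tris buffer, 1% DMSO.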

Miapaca-2 cells = test: MiaPaca-2 Cell Proliferation Assay (1); type: cell-based; details: Homo sapiens, MIA PaCa-2, single agent, read-out: MiaPaca2 (1) IC50
In short: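 Resazurin was added after compound exposure and incubated 5-6 h, then fluorescence read at 540 nm excitation and 600 nm emission to give IC50.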

[2] = assay version (1), read-out: BRAF (1) IC50
[3] = biochemical assay (1), read-out: BRAF (1)

Sequence of B-Raf kinase (SEQ. ID NO: 2) (P15056 416-766): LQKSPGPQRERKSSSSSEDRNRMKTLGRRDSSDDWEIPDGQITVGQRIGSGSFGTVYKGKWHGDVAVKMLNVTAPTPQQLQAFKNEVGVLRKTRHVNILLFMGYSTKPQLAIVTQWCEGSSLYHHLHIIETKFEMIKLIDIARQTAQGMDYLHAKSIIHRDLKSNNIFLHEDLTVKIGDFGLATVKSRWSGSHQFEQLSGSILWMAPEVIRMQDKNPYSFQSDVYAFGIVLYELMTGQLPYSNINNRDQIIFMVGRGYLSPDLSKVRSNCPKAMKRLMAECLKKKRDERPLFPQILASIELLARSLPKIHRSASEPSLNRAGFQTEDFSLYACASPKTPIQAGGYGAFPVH

IC50 (A375 cells) [nM] | IC50 (H2405 cells) [nM] | IC50 [1, 2] [nM] | IC50 (Miapaca-2 cells) [nM] | IC50 [1, 3] [nM] | Compound
100 to 500 | 100 to 500 |  |  | ≤ 100 | Cc1ccc(NC(=O)c2cc(C3CC3)n(C)n2)cc1-c1cc(-c2ccnc(NC(=O)C3CC3)c2)cnn1 [Example 377]
≤ 100 | 100 to 500 |  |  | 100 to 500 | CNC(=O)c1cc(-c2ccnc(-c3cc(NC(=O)c4ccnc(C(C)(C)F)c4)ccc3C)c2)ccn1 [Example 378]
≤ 100 | 100 to 500 |  | 1000 to 10000 | 100 to 500 | CNC(=O)c1cc(-c2cncc(-c3cc(NC(=O)c4ccnc(C(C)(C)F)c4)ccc3C)c2)ncn1 [Example 379]
100 to 500 | 100 to 500 |  |  | ≤ 100 | Cc1ccc(NC(=O)c2ccnc(C(C)(C)F)c2)cc1-c1cncc(-c2ccnc(C(N)=O)c2)c1 [Example 380]
1000 to 10000 | 1000 to 10000 |  |  | 100 to 500 | Cc1ccc(NC(=O)c2cnn(CC(F)(F)F)c2)cc1-c1cncc(-c2ccnc(C(N)=O)c2)c1 [Example 381]
1000 to 10000 | 1000 to 10000 |  |  | 100 to 500 | CNC(=O)c1cc(-c2cncc(-c3cc(NC(=O)c4cnn(CC(F)(F)F)c4)ccc3C)c2)ncn1 [Example 382]
1000 to 10000 | 1000 to 10000 |  |  | 100 to 500 | CNC(=O)c1cc(-c2cncc(-c3cc(NC(=O)Cn4cc(C(C)C)nn4)ccc3C)c2)ncn1 [Example 383]
≤ 100 | 100 to 500 |  | 1000 to 10000 | ≤ 100 | COC(=O)Nc1cc(-c2cncc(-c3cc(NC(=O)c4ccnc(C(C)(C)F)c4)c(F)cc3C)c2)ccn1 [Example 384]
1000 to 10000 | 1000 to 10000 |  |  | 100 to 500 | Cc1ncc(NC(=O)c2ccnc(C(C)(C)C#N)c2)cc1-c1cccc(-c2ncnn3cccc23)c1 [Example 385]
100 to 500 | 500 to 1000 |  |  | 100 to 500 | COC(=O)Nc1cc(-c2cc(-c3cc(NC(=O)c4ccnc(C(C)(C)F)c4)c(F)cc3C)cc(C)n2)ccn1 [Example 386]
1000 to 10000 | 1000 to 10000 |  |  | ≤ 100 | Cc1ccc(NC(=O)[C@H]2CCO[C@@H](C(C)C)C2)cc1-c1cc(-c2ccnc(NC(=O)C3CC3)c2)cnn1 [Example 388]
1000 to 10000 | 1000 to 10000 |  |  | ≤ 100 | Cc1ccc(NC(=O)[C@H]2CCO[C@H](C(C)C)C2)cc1-c1cc(-c2ccnc(NC(=O)C3CC3)c2)cnn1 [Example 389]
≤ 100 | 500 to 1000 |  | 1000 to 10000 | ≤ 100 | COC(=O)Nc1cc(-c2nccc(-c3cc(NC(=O)c4ccnc(C(C)(C)F)c4)ccc3C)n2)ccn1 [Example 391]
1000 to 10000 | 1000 to 10000 |  |  | 500 to 1000 | CNC(=O)c1cc(-c2ccnc(-c3cc(NC(=O)CCC4(F)CC4)ccc3C)c2)ccn1 [Example 392]
100 to 500 | 100 to 500 |  | 1000 to 10000 | ≤ 100 | CNC(=O)c1cc(-c2cncc(-c3cc(NC(=O)c4ccnc(C5(C#N)CC5)c4)ccc3C)c2)ncn1 [Example 393]
≤ 100 | ≤ 100 |  |  | ≤ 100 | Cc1cc(F)c(NC(=O)c2ccnc(C(C)(C)F)c2)cc1-c1cncc(-c2ccnc(NC(=O)C3CC3)c2)c1 [Example 399]
1000 to 10000 | 1000 to 10000 |  |  | ≤ 100 | Cc1ccc(NC(=O)c2ccnc(C(C)(C)F)c2)cc1-c1cc(-c2ccnc3[nH]ncc23)cnn1 [Example 400]
100 to 500 | 500 to 1000 |  |  | ≤ 100 | COC(=O)Nc1cc(-c2cccc(-c3cc(NC(=O)c4ccnc(C(C)(C)F)c4)cnc3C)c2)ccn1 [Example 402]
100 to 500 | 100 to 500 |  |  | ≤ 100 | COC(=O)Nc1cc(-c2ccnc(-c3cc(NC(=O)c4ccnc(C(C)(C)F)c4)ccc3C)n2)ccn1 [Example 403]

The remaining lines, values behind:

Compound | IC50 (A375 cells) [nM] | IC50 (H2405 cells) [nM] | IC50 [1, 2] [nM] | IC50 (Miapaca-2 cells) [nM] | IC50 [1, 3] [nM]
CC(=O)Nc1cc(-c2cc(-c3cc(NC(=O)c4ccnc(C(F)(F)F)c4)ccc3C)nc(N(C)C)n2)ccn1 [Example 41, N-(3-(6-(2-acetamidopyridin-4-yl)-2-(dimethylamino)pyrimidin-4-yl)-4-methylphenyl)-2-(trifluoromethyl)isonicotinamide] | 100 to 500 | ≤ 100 | ≤ 100 | 1000 to 10000 | 
CNC(=O)c1cc(-c2cc(-c3cc(NC(=O)c4ccnc(C(F)(F)F)c4)cnc3C)ccn2)ccn1 [Example 42] | 1000 to 10000 | 500 to 1000 | 100 to 500 | 1000 to 10000 | 
CNC(=O)c1cc(-c2cc(-c3cc(NC(=O)c4ccnc(C(F)F)c4)ccc3C)ccn2)ccn1 [Example 48] | 500 to 1000 | 100 to 500 | ≤ 100 | 1000 to 10000 | 
CNC(=O)c1cc(-c2cc(-c3cc(NC(=O)c4ccnc(C(C)(C)C#N)c4)ccc3C)ccn2)ccn1 [Example 50] | ≤ 100 | ≤ 100 | ≤ 100 | 1000 to 10000 | 
CNC(=O)c1cc(-c2cc(-c3cc(NC(=O)c4cccc(C(F)(F)F)c4)cnc3C)ccn2)ccn1 [Example 52] | 100 to 500 | ≤ 100 | 100 to 500 | 1000 to 10000 | 
Cc1ccc(NC(=O)c2ccnc(C(F)(F)F)c2)cc1-c1ccnc(-c2ccnc(NC(=O)C3CC3)c2)c1 [Example 54] | 100 to 500 | ≤ 100 | ≤ 100 | 1000 to 10000 | 
Cc1ccc(NC(=O)c2ccnc(C(C)(C)C#N)c2)cc1-c1ccnc(-c2ccnc(N)c2)c1 [Example 56] | 100 to 500 | 500 to 1000 | ≤ 100 | 1000 to 10000 | 
CCOc1ncc(-c2cc(NC(=O)c3ccnc(C(F)(F)F)c3)ccc2C)cc1-c1ccnc(NC(C)=O)c1 [Example 68] | ≤ 100 | 100 to 500 | ≤ 100 | 1000 to 10000 | 
CCOc1ncc(-c2cc(NC(=O)c3ccnc(C(F)(F)F)c3)ccc2C)cc1-c1ccnc(C(=O)NC)c1 [Example 69] | 100 to 500 | 100 to 500 | 100 to 500 | 1000 to 10000 | 
CCOc1ncc(-c2cc(NC(=O)c3ccnc(C(F)(F)F)c3)ccc2C)cc1-c1ccnc(NC(=O)C2CC2)c1 [Example 71] | 100 to 500 | 100 to 500 | 100 to 500 | 1000 to 10000 | 
CNC(=O)c1cc(-c2cc(-c3cc(C(=O)Nc4ccnc(C(C)(C)C#N)c4)ccc3C)ccn2)ccn1 [Example 74] | 100 to 500 | 100 to 500 | 500 to 1000 | 1000 to 10000 | 
Cc1ccc(NC(=O)c2ccnc(C(C)(C)C#N)c2)cc1-c1cccc(-c2cc(NC(=O)C3CC3)ncn2)c1 [Example 77] | ≤ 100 | ≤ 100 | ≤ 100 | 1000 to 10000 | 
Cc1ccc(NC(=O)c2ccnc(C(F)(F)F)c2)cc1-c1cccc(-c2cc(NC(=O)C3CC3)ncn2)c1 [Example 80] | ≤ 100 | ≤ 100 | ≤ 100 | 1000 to 10000 | 
Cc1ccc(NC(=O)c2ccnc(C(C)(C)C#N)c2)cc1-c1ccnc(-c2ccnc(N)c2)n1 [Example 82] | 500 to 1000 | 500 to 1000 | ≤ 100 | 1000 to 10000 | 
CNC(=O)c1cc(-c2cc(-c3cc(NC(=O)c4ccnc(C(F)(F)F)c4)ccc3C)ncn2)ccn1 [Example 85] | 1000 to 10000 | 100 to 500 | ≤ 100 | 1000 to 10000 | 
CNC(=O)c1cc(-c2cncc(-c3cc(NC(=O)c4ccnc(C(C)(C)C#N)c4)ccc3C)n2)ccn1 [Example 86] | ≤ 100 | ≤ 100 | 100 to 500 | 1000 to 10000 | 
